In article PMC5312080 (mBio, 2017):
Converted amounts (≈) assume the structure as drawn. “And” between values parts separate entries of the source, which are not always exact repeats. Identical values can stand only once. Like-named read-outs stand apart in the source and are kept apart here.

Experiments:
[1] = tested on: M. tuberculosis H37Rv; experiment: Checkerboard alamarBlue compound interaction assay; type: cell-based, Mycobacterium tuberculosis; conditions: for MIC: Mycobacterium tuberculosis, H37RV, drug alone, checkerboard; for FIC category / FIC index (∑FIC): combination of the named drug with DG70
[2] = tested on: ATP synthesis in BCG; type: cell-based, Mycobacterium bovis BCG
[3] = tested on: mycobacterial oxygen consumption; experiment: Oxygen consumption, methylene blue decolorization; type: cell-based
[4] = tested on: M. tuberculosis H37Rv; experiment: Microdilution alamarBlue assay (MABA) MIC; type: cell-based; conditions: Mycobacterium tuberculosis
[5] = in vitro; conditions: African green monkey
[6] = tested on: M. bovis BCG; experiment: microbe, parasite or virus in culture; type: cell-based; conditions: Mycobacterium tuberculosis variant bovis BCG
[7] = tested on: BCG; type: cell-based, Mycobacterium bovis BCG
[8] = tested on: nonreplicating M. tuberculosis; type: cell-based, Mycobacterium tuberculosis; conditions: for reduction of CFU: 7 days, M. tuberculosis starved 6 weeks in PBS
[9] = tested on: menaquinone biosynthesis (MenG); type: cell-based, Mycobacterium bovis BCG
[10] = tested on: menaquinone biosynthesis (MenG); type: cell-based, Mycobacterium bovis BCG; remark: listed apart in the source
[11] = tested on: BCG overexpressing menG_F118L; type: cell-based; conditions: 20 µg/ml of DG70, 7 days, CFU
[12] = tested on: M. fortuitum; experiment: MABA MIC; type: cell-based, Mycobacterium fortuitum; conditions: Mycolicibacterium fortuitum
[13] = tested on: A. baumanii; experiment: MABA MIC; type: cell-based; conditions: Acinetobacter baumannii
[14] = tested on: Burkholderia cepacia; experiment: MABA MIC; type: cell-based
[15] = tested on: S. epidemis 14490; experiment: MABA MIC; type: cell-based; conditions: Staphylococcus epidermidis
[16] = tested on: S. aureus MRSA; experiment: MABA MIC; type: cell-based; conditions: Staphylococcus aureus
[17] = tested on: Brucella neotomae; experiment: microbe, parasite or virus in culture; type: cell-based
[18] = tested on: PcydAB promoter (cydAB operon) reporter; type: cell-based, Mycobacterium bovis BCG
[19] = tested on: M. marinum; experiment: MABA MIC; type: cell-based; conditions: Mycobacterium marinum
[20] = tested on: E. cloacae; experiment: MABA MIC; type: cell-based; conditions: Enterobacter cloacae
[21] = tested on: Klebsiella pneumoniae; experiment: MABA MIC; type: cell-based
[22] = tested on: M. abcessus; experiment: MABA MIC; type: cell-based, Mycobacterium abscessus; conditions: Mycobacteroides abscessus
[23] = tested on: M. tuberculosis mc^26206 in J774A.1 murine macrophages; type: cell-based; conditions: J774A.1 macrophages, 3 days, concentrations equivalent to in vitro MIC
[24] = tested on: M. avium; experiment: MABA MIC; type: cell-based, Mycobacterium avium subsp. avium; conditions: Mycobacterium avium
[25] = tested on: Yersinia pseudotuberculosis; experiment: microbe, parasite or virus in culture; type: cell-based
[26] = tested on: Pseudomonas aeruginosa; experiment: MABA MIC; type: cell-based
[27] = tested on: E. faecium; experiment: MABA MIC; type: cell-based; conditions: Enterococcus faecium
[28] = tested on: M. smegmatis; experiment: MABA MIC; type: cell-based, Mycobacterium smegmatis; conditions: Mycolicibacterium smegmatis
[29] = tested on: Legionella pneumophila; experiment: microbe, parasite or virus in culture; type: cell-based
[30] = tested on: nontuberculous mycobacteria (NTM); experiment: organism not typed; type: cell-based
[31] = tested on: BCG::pMV306PHsp60 strains overexpressing menG; type: cell-based, Mycobacterium bovis BCG
[32] = tested on: Francisella philomiragia; experiment: microbe, parasite or virus in culture; type: cell-based
[33] = in vitro; conditions: mouse, microsomes
[34] = tested on: Bacillus cereus; experiment: MABA MIC; type: cell-based
[35] = FIC of the anti-TB drug in combination with DG70
[36] = anti-TB drug in combination with DG70
[37] = Table S2, parent H37Rv, read-out: MIC in Mtb H37Rv
[38] = whole-cell activity versus M. tuberculosis, […], read-out: MIC

CC[C@@H](CO)NCCN[C@@H](CC)CO [EMB, ethambutol]
FIC [1, 35]: 0.5 | MIC [1]: 6.25 µM | MIC In combination [1, 36]: 3.12 µM | FIC category [1]: additive (>0.5 to ≤1, additive) | FIC index (∑FIC) [1]: 0.6

CSc1ccc2c(c1)N(CCC1CCCCN1C)c1ccccc1S2 (stereo not shown) [THZ, thioridazine]
effect of MK4 supplementation on inhibition of ATP synthesis [2]: failed to reverse | effect of MK4 supplementation on inhibition of oxygen consumption [3]: failed to reverse | FIC [1, 35]: 0.5 | MIC [1]: 6.25 µM | MIC In combination [1, 36]: 3.12 µM | FIC category [1]: additive (>0.5 to ≤1, additive) | FIC index (∑FIC) [1]: 0.7

COc1ccc(-c2cc(NC(=O)c3ccccc3Cl)ccc2OC)cc1 [JSF-2908]
MIC [4, 37]: 4.8 µg/mL (≈ 13 µM) | MIC [4, 38]: 4.8 µg/mL (≈ 13 µM) | CC50 [5]: 50 µg/mL (≈ 136 µM)

COc1ccc(-c2cc(NCc3ccc(F)cc3Cl)ccc2OC)cc1 [JSF-2951]
MIC [4, 37]: 77 µg/mL (≈ 207 µM) | MIC [4, 38]: 77 µg/mL (≈ 207 µM) | CC50 [5]: > 50 µg/mL

O=C(Nc1cccc(-c2ccccc2)c1)c1ccc(F)cc1Cl [JSF-2910]
MIC [4, 37]: 9.6 µg/mL (≈ 29.5 µM) | MIC [4, 38]: 9.6 µg/mL (≈ 29.5 µM) | CC50 [5]: > 50 µg/mL

NNC(=O)c1ccncc1 [INH, isoniazid]
MIC90 [6]: 0.05 µg/mL (≈ 0.365 µM) | regrowth after [7]: 7 days | time of treatment to sterile cultures (no CFU detected) [7]: 10 days | MIC90 [4]: 0.05 µg/mL (≈ 0.365 µM) | day by which cultures were completely sterilized [8]: ≤ 10 days | oxygen consumption (methylene blue decolorization at 665 nm) [3]: clearly decolorized methylene blue | [14C]methyl incorporation into menaquinone [9]: no such effect | MK9/DMK9 [10]: 3.8 and 2.9 | FIC [1, 35]: 0.2 | MIC [1]: 0.39 µM | MIC In combination [1, 36]: 0.09 µM | FIC category [1]: synergistic (≤0.5, synergistic) | FIC index (∑FIC) [1]: 0.4

COc1ccc(-c2cc(NC(=O)c3ccccc3)ccc2OC)cc1 [JSF-2912]
MIC [4, 37]: 9.6 µg/mL (≈ 28.8 µM) | MIC [4, 38]: 9.6 µg/mL (≈ 28.8 µM) | CC50 [5]: > 80 µg/mL

O=[N+]([O-])c1cn2c(n1)OC[C@@H](OCc1ccc(OC(F)(F)F)cc1)C2 [PA824]
regrowth after [7]: 10 days | time of treatment to sterile cultures (no CFU detected) [7]: 10 days | FIC [1, 35]: 1.0 | MIC [1]: 0.1 µM | MIC In combination [1, 36]: 0.1 µM | FIC category [1]: additive (>0.5 to ≤1, additive) | FIC index (∑FIC) [1]: 1.0

CO[C@H]1/C=C/O[C@@]2(C)Oc3c(C)c(O)c4c(O)c(c(/C=N/N5CCN(C)CC5)c(O)c4c3C2=O)NC(=O)/C(C)=C\C=C\[C@H](C)[C@H](O)[C@@H](C)[C@@H](O)[C@@H](C)[C@H](OC(C)=O)[C@@H]1C [RIF, rifampin]
FIC [1, 35]: 0.25 | MIC [1]: 0.02 µM | MIC In combination [1, 36]: 0.005 µM | FIC category [1]: synergistic (≤0.5, synergistic) | FIC index (∑FIC) [1]: 0.5

COc1ccc(-c2cccc(NC(=O)c3ccc(F)cc3Cl)c2)cc1 [JSF-2907]
MIC [4, 37]: > 77 µg/mL | MIC [4, 38]: > 77 µg/mL | CC50 [5]: 50 µg/mL (≈ 141 µM)

COc1ccc(-c2cc(NC(=O)c3ccc(F)cc3)ccc2OC)cc1 [JSF-2909]
MIC [4, 37]: > 77 µg/mL | MIC [4, 38]: > 77 µg/mL | CC50 [5]: > 50 µg/mL

COc1ccc(-c2cc(N(C)C(=O)c3ccc(F)cc3Cl)ccc2OC)cc1 [JSF-2949]
MIC [4, 37]: 39.5 µg/mL (≈ 98.8 µM) | MIC [4, 38]: 39 µg/mL (≈ 97.5 µM) | CC50 [5]: 24 µg/mL (≈ 60 µM)

COc1ccc(-c2cc(NC(=O)c3ccc(F)cc3Cl)ccc2OC)cc1 [DG70, 2-chloro-N-(4',6-dimethoxy-[1,1'-biphenyl]-3-yl)-4-fluorobenzamide]
MIC [6]: 2.4 µg/mL (≈ 6.22 µM) | effect of MK4 pretreatment on bactericidal activity [7]: could be reversed | killing (drop in CFU) over 21 days [7]: 5 log10 | killing in 4 days [7]: less than 1 log10 | reduction of cultures after 2 days of treatment [7]: ≤ 1 log10 | MIC90 ([4]; H37Rv + 400 µM MK4, read-out: MIC90): 9.6 µg/mL | MIC90 ([4]; H37Rv, lab strain, […], read-out: MIC90): 4.8 µg/mL (≈ 12.4 µM) | MIC ([4]; M. tuberculosis (Table S1), read-out: MIC): 4.8 µg/mL (≈ 12.4 µM) | MIC [4, 37]: 2.4 µg/mL (≈ 6.22 µM) | MIC [4, 38]: 2.4 µg/mL (≈ 6.22 µM) | CC50 ([5]; 50% cytotoxic concentration (CC50), Vero cells): > 77 µg/mL | CC50 ([5]; CC50, Vero cells, 48 h, MTT): > 80 µg/mL | growth inhibition of strain overexpressing menG_F118L [11]: completely resistant | MIC [12]: > 40 µg/mL | MIC [13]: > 20 µg/mL | effect of MK4 on killing of nutrient-deprived M. tuberculosis ([8]; 400 µM MK4): reversed | reduction of CFU ([8]; 5× MIC): 4 log10 | reduction of CFU ([8]; 10× MIC): 6.5 log10 | MIC [14]: > 40 µg/mL | MIC [15]: > 20 µg/mL | MIC [16]: > 20 µg/mL | effect of MK4 supplementation on inhibition of ATP synthesis [2]: rescued | intracellular ATP levels [2]: significant decrease in ATP levels | MIC [17]: > 40 µg/mL | peak PcydAB induction [18]: 3.1 fold | oxygen consumption (methylene blue decolorization at 665 nm) [3]: strongly prevented decolorization of methylene blue | effect of MK4 supplementation on inhibition of oxygen consumption ([3]; 400 µM MK4): rescued | MIC [19]: > 40 µg/mL | [14C]methyl incorporation into menaquinone [9]: complete suppression | MIC [20]: > 20 µg/mL | MIC [21]: > 20 µg/mL | MIC [22]: > 40 µg/mL | intracellular M. tuberculosis growth in macrophages [23]: inhibited intracellular M. tuberculosis growth | MIC [24]: > 40 µg/mL | MIC [25]: > 40 µg/mL | MIC [26]: > 20 µg/mL | MIC [27]: > 20 µg/mL | MIC [28]: > 40 µg/mL | MIC In combination ([1]; DG70 in combination with BDQ): 1.5 µM | MIC In combination ([1]; DG70 in combination with EMB): 1.5 µM | MIC In combination ([1]; DG70 in combination with INH): 3.12 µM | MIC In combination ([1]; DG70 in combination with PA824): 0.35 µM | MIC In combination ([1]; DG70 in combination with RIF): 3.1 µM | MIC In combination ([1]; DG70 in combination with THZ): 3.12 µM | FIC ([1]; FIC of DG70 in combination with BDQ): 0.1 | FIC ([1]; FIC of DG70 in combination with EMB): 0.12 | FIC ([1]; FIC of DG70 in combination with INH): 0.2 | FIC ([1]; FIC of DG70 in combination with PA824): 0.03 | FIC ([1]; FIC of DG70 in combination with RIF): 0.25 | FIC ([1]; FIC of DG70 in combination with THZ): 0.2 | MIC [1]: 12.5 µM | MIC [29]: > 40 µg/mL | MIC [30]: > 100 µM | activity against NTM and other bacteria [30]: lacked activity | increase of DG70 MIC on overexpression of menG [31]: 4 × | MIC [32]: > 40 µg/mL | microsomal CLint [33]: 921 µL/min/mg | MIC [34]: > 40 µg/mL

COc1nc2ccc(Br)cc2cc1[C@@H](c1ccccc1)[C@@](O)(CCN(C)C)c1cccc2ccccc12 [BDQ, bedaquiline]
killing (drop in CFU) over 21 days [7]: 5 log10 | killing in 4 days [7]: less than 1 log10 | time of treatment to sterile cultures (no CFU detected) [7]: 21 days | effect of MK4 supplementation on inhibition of ATP synthesis [2]: failed to reverse | effect of MK4 supplementation on inhibition of oxygen consumption ([3]; 400 µM MK4): failed to reverse | [14C]methyl incorporation into menaquinone [9]: no such effect | FIC [1, 35]: 0.4 | MIC [1]: 0.39 µM | MIC In combination [1, 36]: 0.16 µM | FIC category [1]: synergistic (≤0.5, synergistic) | FIC index (∑FIC) [1]: 0.5

COc1ccc(NC(=O)c2ccc(F)cc2Cl)cc1 [JSF-2926]
MIC [4, 37]: 9.6 µg/mL (≈ 34.3 µM) | MIC [4, 38]: 9.6 µg/mL (≈ 34.3 µM) | CC50 [5]: > 70 µg/mL

O=C(Nc1ccc(O)c(-c2ccc(O)cc2)c1)c1ccc(F)cc1Cl [JSF-2950]
MIC [4, 37]: 39.5 µg/mL (≈ 110 µM) | MIC [4, 38]: 39 µg/mL (≈ 109 µM) | CC50 [5]: 50 µg/mL (≈ 140 µM)

COc1ccc(NC(=O)c2ccc(F)cc2Cl)cc1-c1ccccc1 [JSF-2971]
MIC [4, 37]: 9.6 µg/mL (≈ 27 µM) | MIC [4, 38]: 9.6 µg/mL (≈ 27 µM) | CC50 [5]: > 50 µg/mL
